Assay results reported in PubChem BioAssay AID2060886 (Molecular Pharmacology Branch, DTP, NCI, 2025).

Tested on: 653999-131-R-J2-PDC complex spheroids, growth inhibition
Assay: Anticancer human tumor 653999-131-R-J2-PDC patient-derived lung adenocarcinoma cell line growth inhibition [RAS]
Conditions: for IC50: curve of first compound; for viability, T/C: stronger effect = lower value; active means viability on the fitted dose curve at most 10% of control; inactive means the rest
Excerpt: RAS pathway inhibitors in Combinations in Complex Spheroids
A high-throughput screen of multi-cell type tumor spheroids was designed to identify active combinations of RAS pathway inhibitors and targeted small molecules. Complex spheroids include a stromal component modeled by human endothelial cells (HUVEC) and fibroblasts modeled by human mesenchymal stem cells (MSCs). The concentration ranges selected for each drug and investigational agent were based upon clinically achievable concentrations if the clinical Cmax of the agent was known.
Compounds. The drugs and investigational agents: abemaciclib (NSC768073), cobimetinib (NSC768068), divarasib (GDC6063, NSC841802), docetaxel (NSC628503), GDC-1971 (RLY-1971, NSC841576), gemcitabine (NSC613327), inavolisib (NSC800729), ipatasertib (NSC767898), KB-0742 (NSC834161), MRTX-1133 (NSC836407), osimertinib (NSC779217), RMC-4630 (NSC839698), RMC-6236 (NSC851965), RMC-6291 (NSC852671), Ro-3306 (NSC812927), sapanisertib (NSC764658), SN-38 (NSC673596), staurosporine (NSC755774), SY5609 (NSC837396), and tovorafenib (DAY101, NSC766906), were obtained from the National Cancer Institute (NCI) Developmental Therapeutics Program Chemical Repository. The FDA-approved anticancer drug set is available from the NCI Developmental Therapeutics Program. […] The stock solutions were prepared in dimethyl sulfoxide (DMSO, Sigma-Aldrich, St. Louis, MO, cat. D2650) at 800-fold the tested concentration and stored at -70 degrees C prior to their use. All drugs and investigational agents were tested over a range starting from a high concentration at or near the clinical Cmax and decreasing in half-log increments. If the clinical Cmax for an agent had not been determined, the highest concentration tested was 10 microM.
Cell Culture. All cells were maintained in an incubator at 37 degrees C and 5% CO2 with 95% humidity. The PDC lines were cultured according to standard operating procedures established by the NCI PDMR. All PDCs were thawed and cultured in Matrigel-coated flasks prepared with a working solution of 1X Ham's F-12 nutrient mix, without supplementation (Invitrogen, Waltham, MA, cat. 11765054), 100 U/mL penicillin-streptomycin (Invitrogen, cat. 15140122), and 2.5% Matrigel (Corning Inc., Corning, NY, cat. 354248) for the first three passages. The 362531-283-R-J2-PDC and 782815-120-R-J1-PDC lines were cultured in 6C/Colon 1B media, which includes advanced DMEM/F-12 (Thermo Fisher Scientific, cat. 12634028), 10 mM HEPES (Thermo Fisher Scientific, cat. 15630080), 1X GlutaMAX supplement (Thermo Fisher Scientific, cat. 35050061), 0.1 mg/mL primocin (InvivoGen, San Diego, CA, cat. ant-pm-2), 10% defined fetal bovine serum, heat inactivated (HyClone Laboratories Inc., Logan, UT, cat. SH30070.03HI), 50% L-WRN conditioned media (ATCC, cat. CRL-3276), 1.25 mM N-Acetyl-L-cysteine (Sigma-Aldrich, cat. A9165), 10 mM nicotinamide (Sigma-Aldrich, cat. N0636), 1X B-27 supplement (Thermo Fisher Scientific, cat. 17504044), 1X N-2 supplement (Thermo Fisher Scientific, cat. 17502048), 50 ng/mL human EGF (Thermo Fisher Scientific, cat. PHG0311), and 10 microM Y-27632 dihydrochloride (Tocris Bioscience, cat. 1254). The K12877-001-R-J1-PDC line was cultured in 6I media, which includes all 6C/Colon 1B media plus 10 ng/mL human FGF-10 (PeproTech, cat. 100-26), 1 ng/mL human FGF-2 (PeproTech, cat. 100-18B), 1 µM prostaglandin E2 (Tocris Bioscience, cat. 2296), […] hydrocortisone (Sigma-Aldrich, cat. H4001), and […] bovine insulin (Sigma-Aldrich, cat. I6634). The K86415-001-R-J1-PDC line was cultured in 6D media, which includes all 6C/Colon 1B media components minus the L-WRN conditioned media. The 485176-168-R4-J1-PDC was cultured in PANC media, which includes all 6C/Colon 1B media plus 100 ng/mL human FGF-10 (PeproTech, cat. 100-26), 500 nM SB-431542 (Selleckchem, cat. S1067), and 10 nM gastrin (Tocris Bioscience, cat. 3006). […]
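Further: spheroids exposed to the agents for seven days before the readout.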

C=CC(=O)Nc1cc(Nc2nccc(-c3cn(C)c4ccccc34)n2)c(OC)cc1N(C)CCN(C)C + CCn1c(-c2cccnc2C(C)OC)c2c3cc(ccc31)N1CCOC(CC(NC(=O)C(C(C)C)N(C)C(=O)C3(F)CCN(C(=O)C#CC(C)(C)N(C)C)CC3)C(=O)N3CCCC(N3)C(=O)OCC(C)(C)C2)C1
562 nM: IC50 (second compound 0.00949 µM)
318 nM: IC50 (second compound 0.003 µM)
> 1000 nM: IC50 (second compound 0.000949 µM)
717 nM: IC50 (second compound 0.0949 µM)
inactive: viability, T/C (second compound 0.000949 µM, first compound 0.00316 µM) 86.2% | viability, T/C (second compound 0.000949 µM, first compound 0.01 µM) 82.3% | viability, T/C (second compound 0.000949 µM, first compound 0.0316 µM) 97.7% | viability, T/C (second compound 0.000949 µM, first compound 0.1 µM) 64.7% | viability, T/C (second compound 0.000949 µM, first compound 0.316 µM) 64.2% | viability, T/C (second compound 0.000949 µM, first compound 1 µM) 49.2% | viability, T/C (second compound 0.003 µM, first compound 0.00316 µM) 90.1% | viability, T/C (second compound 0.003 µM, first compound 0.01 µM) 95.8% | viability, T/C (second compound 0.003 µM, first compound 0.0316 µM) 86.3% | viability, T/C (second compound 0.003 µM, first compound 0.1 µM) 67.1% | viability, T/C (second compound 0.003 µM, first compound 0.316 µM) 52.5% | viability, T/C (second compound 0.003 µM, first compound 1 µM) 37.8% | viability, T/C (second compound 0.00949 µM, first compound 0.00316 µM) 80.5% | viability, T/C (second compound 0.00949 µM, first compound 0.01 µM) 84.8% | viability, T/C (second compound 0.00949 µM, first compound 0.0316 µM) 93.2% | viability, T/C (second compound 0.00949 µM, first compound 0.1 µM) 85.7% | viability, T/C (second compound 0.00949 µM, first compound 0.316 µM) 55% | viability, T/C (second compound 0.00949 µM, first compound 1 µM) 45% | viability, T/C (second compound 0.03 µM, first compound 0.00316 µM) 87.1% | viability, T/C (second compound 0.03 µM, first compound 0.01 µM) 97.6% | viability, T/C (second compound 0.03 µM, first compound 0.0316 µM) 84.2% | viability, T/C (second compound 0.03 µM, first compound 0.1 µM) 82.5% | viability, T/C (second compound 0.03 µM, first compound 0.316 µM) 52.6% | viability, T/C (second compound 0.03 µM, first compound 1 µM) 43.6% | viability, T/C (second compound 0.0949 µM, first compound 0.00316 µM) 79.4% | viability, T/C (second compound 0.0949 µM, first compound 0.01 µM) 76.5% | viability, T/C (second compound 0.0949 µM, first compound 0.0316 µM) 115% | viability, T/C (second compound 0.0949 µM, first compound 0.1 µM) 89.8% | viability, T/C (second compound 0.0949 µM, first compound 0.316 µM) 59.6% | viability, T/C (second compound 0.0949 µM, first compound 1 µM) 46.1% | viability, T/C (second compound 0.3 µM, first compound 0.00316 µM) 78.7% | viability, T/C (second compound 0.3 µM, first compound 0.01 µM) 104% | viability, T/C (second compound 0.3 µM, first compound 0.0316 µM) 94.8% | viability, T/C (second compound 0.3 µM, first compound 0.1 µM) 94.1% | viability, T/C (second compound 0.3 µM, first compound 0.316 µM) 61.7% | viability, T/C (second compound 0.3 µM, first compound 1 µM) 44.6%
697 nM: IC50 (second compound 0.3 µM)
450 nM: IC50 (second compound 0.03 µM)

CC1(C)CCC(Nc2ncc(C(F)(F)F)c(-c3c[nH]c4c(P(C)(C)=O)c(C#N)ccc34)n2)CN1 (centres undefined) + C=CC(=O)N1CCN(c2nc(OCC3CCCN3C)nc3c(F)c(-c4nc(N)cc(C)c4C(F)(F)F)c(Cl)cc23)C(C)C1
> 300 nM: IC50 (second compound 0.00316 µM) | IC50 (second compound 0.01 µM) | IC50 (second compound 0.0316 µM) | IC50 (second compound 0.1 µM) | IC50 (second compound 0.316 µM) | IC50 (second compound 1 µM)
inactive: viability, T/C (second compound 0.00316 µM, first compound 0.000949 µM) 84% | viability, T/C (second compound 0.00316 µM, first compound 0.003 µM) 70.5% | viability, T/C (second compound 0.00316 µM, first compound 0.00949 µM) 73.5% | viability, T/C (second compound 0.00316 µM, first compound 0.03 µM) 60.1% | viability, T/C (second compound 0.00316 µM, first compound 0.0949 µM) 70% | viability, T/C (second compound 0.00316 µM, first compound 0.3 µM) 71.4% | viability, T/C (second compound 0.01 µM, first compound 0.000949 µM) 88.8% | viability, T/C (second compound 0.01 µM, first compound 0.003 µM) 74% | viability, T/C (second compound 0.01 µM, first compound 0.00949 µM) 70.1% | viability, T/C (second compound 0.01 µM, first compound 0.03 µM) 60.9% | viability, T/C (second compound 0.01 µM, first compound 0.0949 µM) 68% | viability, T/C (second compound 0.01 µM, first compound 0.3 µM) 64.6% | viability, T/C (second compound 0.0316 µM, first compound 0.000949 µM) 89.8% | viability, T/C (second compound 0.0316 µM, first compound 0.003 µM) 66.1% | viability, T/C (second compound 0.0316 µM, first compound 0.00949 µM) 59.9% | viability, T/C (second compound 0.0316 µM, first compound 0.03 µM) 64.2% | viability, T/C (second compound 0.0316 µM, first compound 0.0949 µM) 65.2% | viability, T/C (second compound 0.0316 µM, first compound 0.3 µM) 64.5% | viability, T/C (second compound 0.1 µM, first compound 0.000949 µM) 77.5% | viability, T/C (second compound 0.1 µM, first compound 0.003 µM) 68.7% | viability, T/C (second compound 0.1 µM, first compound 0.00949 µM) 61% | viability, T/C (second compound 0.1 µM, first compound 0.03 µM) 58.5% | viability, T/C (second compound 0.1 µM, first compound 0.0949 µM) 60.1% | viability, T/C (second compound 0.1 µM, first compound 0.3 µM) 69.8% | viability, T/C (second compound 0.316 µM, first compound 0.000949 µM) 101% | viability, T/C (second compound 0.316 µM, first compound 0.003 µM) 72.3% | viability, T/C (second compound 0.316 µM, first compound 0.00949 µM) 69.8% | viability, T/C (second compound 0.316 µM, first compound 0.03 µM) 77.1% | viability, T/C (second compound 0.316 µM, first compound 0.0949 µM) 77.5% | viability, T/C (second compound 0.316 µM, first compound 0.3 µM) 69.5% | viability, T/C (second compound 1 µM, first compound 0.000949 µM) 78.9% | viability, T/C (second compound 1 µM, first compound 0.003 µM) 69.9% | viability, T/C (second compound 1 µM, first compound 0.00949 µM) 74% | viability, T/C (second compound 1 µM, first compound 0.03 µM) 64% | viability, T/C (second compound 1 µM, first compound 0.0949 µM) 65.9% | viability, T/C (second compound 1 µM, first compound 0.3 µM) 63.7%
